From PubChem BioAssay (NCI)
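The compound was tested at five concentrations on cells cultured in 96-well plates, with a 48-hour exposure period. The concentration for 50% growth inhibition is given as GI50. Definition used: TGI = concentration required for complete inhibition of growth.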

What was measured:
Experiment in all cases: NCI-60 cell line screen, 48 h
[1] = system: IGROV1 ovarian
[2] = system: NCI-H460 lung
[3] = system: SNB-75 CNS
[4] = system: RPMI-8226 leukemia
[5] = system: MOLT-4 leukemia
[6] = system: A549 NSCLC
[7] = system: CCRF-CEM leukemia
[8] = system: HCC-2998 colon
[9] = system: HOP-92 NSCLC
[10] = system: A498 renal

Row | Compound | TGI [1] [µM] | TGI [2] [µM] | TGI [3] [µM] | TGI [4] [µM] | TGI [5] [µM] | TGI [6] [µM] | TGI [7] [µM] | TGI [8] [µM] | TGI [9] [µM] | TGI [10] [µM] | GI50 [1] [µM] | GI50 [2] [µM] | GI50 [4] [µM] | GI50 [5] [µM] | GI50 [6] [µM] | GI50 [7] [µM] | GI50 [9] [µM] | GI50 [10] [µM] | GI50 [8] [µM] | GI50 [3] [µM]
1 | C[C@@H]1CC[C@@H]2[C@@H](C)C[C@H]3[C@@H]4C(C)(C)OC(=O)[C@]4(C)C(=O)[C@@]23C1=O | > 100 | > 100 | > 100 | > 100 | > 100 | > 100 | > 100 | > 100 | – | – | – | – | – | – | – | – | – | – | – | –
2 | Cn1nc(-c2ccccc2)c(C(=O)/C=C/c2ccc(F)cc2)c(N2CCOCC2)c1=O | 39.3 | 78.2 | – | 23.2 | 48.7 | 54.3 | 49.2 | – | 36.4 | 32 | – | – | – | – | – | – | – | – | – | –
3 | Cc1nc(Nc2ccccc2)sc1C(=O)CC(=O)C(=O)NC12CC3CC(CC(C3)C1)C2 | > 100 | > 100 | > 100 | – | > 100 | > 100 | > 100 | > 100 | 89.4 | – | – | – | – | – | – | – | – | – | – | –
4 | NC(=Nc1nc(-c2ccccn2)cc2ccccc12)c1ccccn1 | > 24.1 | – | – | 0.515 | 0.0283 | > 48.7 | – | > 100 | 5.92 | – | 0.0212 | 0.099 | < 0.0175 | 0.00109 | 0.255 | 0.00229 | 0.0765 | 0.0283 | – | –
5 | COC(=O)C1=C(O)[C@H](C(=O)OC)[C@]2(O)[C@@H](C(=O)OC)[C@H]1C[C@@H](c1ccc(OC(=O)/C=C/c3ccco3)cc1)[C@@H]2C(=O)OC | – | > 100 | – | 57.5 | 6.67 | > 100 | – | 19.3 | 48.3 | – | – | 33 | 0.293 | 1.29 | 30.5 | – | 18.1 | – | 7 | –
6 | NNC(=S)Nc1cccc(Cl)c1 | > 100 | > 100 | > 100 | > 100 | > 100 | > 100 | > 100 | > 100 | – | > 100 | – | – | – | – | – | – | – | – | – | –
7 | O=C1[C@H](Cl)[C@H]2c3cc4ccccc4nc3Oc3ccccc3N12 | > 100 | > 100 | 17.7 | 65.5 | > 100 | > 100 | > 100 | > 100 | – | > 100 | – | – | – | – | – | – | – | – | – | –
8 | COc1ccc2c(c1)N(CCO)C1=C(C(=O)OC1)C2c1ccccc1 (centres undefined) | > 50 | 12.5 | > 50 | > 50 | > 50 | > 50 | > 50 | > 50 | – | 3.11 | 2.41 | 1.77 | 1.78 | 3.63 | 2.12 | 1.91 | – | 0.841 | 3.21 | 1.01
9 | Cc1ccc(NC(=O)CC/C(CC(=O)C(C)(C)C)=N\Nc2ccc([N+](=O)[O-])cc2[N+](=O)[O-])cc1C | > 100 | > 100 | – | – | > 100 | > 100 | 98 | – | > 100 | – | – | – | – | – | – | – | – | – | – | –
10 | CCOC(=O)NC(=O)c1cn(CCN2CCNCC2)c(=O)[nH]c1=O | > 100 | > 100 | – | > 100 | > 100 | > 100 | > 100 | – | > 100 | – | – | – | – | – | – | – | – | – | – | –
